Measurements as given in patent US20100048597A1 (Novartis AG, priority 2006, published 2010).
pIC50: −log10 of the molar value.

Columns and labels:
[1] = tested on: neointima formation; settings: rats; cited from earlier work
[2] = target: T1, CDK2/cyclinA (Homo sapiens, UniProt P24941); assay: CDK2/cyclinA kinase assay, IMAP fluorescence polarization; format: biochemical
T1 construct: purchased Millipore
Summary of the method: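 Recombinant purified enzyme reactions run 2 hours at room temperature with 1% DMSO final. Stopped with 1× Developer buffer (100% A) and IMAP beads 1/400, then 1 hour more before fluorescence polarization read. IC50 from mP values versus log concentration.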

[3] = target: T2, CDK9/cyclinT1 (Homo sapiens, UniProt P50750); assay: CDK9/cyclinT1 kinase assay, IMAP fluorescence polarization; format: biochemical
T2 construct: purchased Millipore
Summary of the method: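 Recombinant purified enzyme complexes assayed by IMAP fluorescence polarization with 1% final DMSO, 2 h at room temperature; stopped with 1× Developer buffer (85% A/15% B) plus IMAP beads 1/400, then 1 h further at room temperature. IC50 from normalized mP versus log compound concentration.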

[4] = target: CDK4 (Homo sapiens, UniProt P11802); assay: CDK4 kinase assay (Table F); format: biochemical
[5] = target: CDK5 (Homo sapiens, UniProt Q00535); assay: CDK5 kinase assay (Table F); format: biochemical
[6] = tested on: RNA Polymerase II CTD Serine2 Phosphorylation; assay: H5 (Ser2) Ab High Content Screen: RNA Polymerase II CTD Serine2 Phosphorylation Assay in Hep3B cells; format: cell-based; settings: Homo sapiens, 2 hours with compound, H5 antibody staining
Method: H5 (also referred as Ser2) Ab High Content Screen: RNA Polymerase II CTD Serine2 Phosphorylation Assay
1. Cells are plated into 384 well plates: 30 μl of Hep3B cells (4,000 cells/30 μl) in DMEM with 3% FBS are plated into wells of a tissue culture treated clear bottomed 384 well plate. Cells are allowed to adhere during an overnight incubation.
2. Cells are treated with compounds for two hours: 10 μl of DMEM with 3% FBS is added to each well with a final concentration of DMSO equal to 1%. Cells are incubated with compounds for 2 hours.
3. Cells are fixed and permeabilized. Cells are washed with 30 mM HEPES pH=7.3 then fixed in 4% paraformaldehyde in 30 mM HEPES pH=7.3 for one hour at room temperature. The fix is removed by washing the cells with Tris buffered saline (TBS) and the cells are permeabilized by incubation in TBS with 0.5% triton X-100 for 30 minutes at room temperature. Triton is removed by washing the cells with TBS.
4. […] Incubate primary H5 Ab (1/250 ) overnight at 4 degrees in TBS with 1% BSA and 0.1% Tween-20. The next day wash cells with TBS. […] Wash cells with PBS.
5. Measure staining using the In-cell Analyzer system from GE Healthcare.

[7] = target: T3, CDK1/cyclinB (Homo sapiens, UniProt P06493); assay: CDK1/cyclinB kinase assay, IMAP fluorescence polarization; format: biochemical; settings: read-out: CDK1 IC50
T3 construct: purchased Millipore
Summary of the method: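 IMAP fluorescence polarization assay on recombinant purified enzyme, compounds at final 1% DMSO. Reaction run 2 h at room temperature, stopped, held 1 h more before reading polarization.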

[8] = target: T4, CDK7/cyclinH/MAT1 (Homo sapiens, UniProt P50613); assay: CDK7/cyclinH/Mat1 kinase assay, IMAP fluorescence polarization; format: biochemical
T4 construct: purchased Millipore
Method: Kinase assays were performed on recombinant purified enzymes using the non-radioactive IMAP fluorescence polarization assay format.
Compound stocks were prepared and diluted in DMSO and were added to kinase reactions at a 1/100 dilution for a final concentration of 1% DMSO. The components were added together to final concentrations listed in the tables below and incubated for two hours at room temperature.
The reactions were stopped by addition of stop solution.
CDK9/CDK1/CDK7: final stop concentration is 1× Developer buffer (85% A/15% B), IMAP beads 1/400
The samples were allowed to incubate for one more hour at room temperature and then the fluorescence polarization was measured. The plate normalized millipolarization (mP) values were plotted against the log of compound concentration for each compound and IC50 values were calculated using the spotfire IC50 calculator and confirmed by visual analysis.

Sequence of CDK4 (P11802 whole entry, species assumed): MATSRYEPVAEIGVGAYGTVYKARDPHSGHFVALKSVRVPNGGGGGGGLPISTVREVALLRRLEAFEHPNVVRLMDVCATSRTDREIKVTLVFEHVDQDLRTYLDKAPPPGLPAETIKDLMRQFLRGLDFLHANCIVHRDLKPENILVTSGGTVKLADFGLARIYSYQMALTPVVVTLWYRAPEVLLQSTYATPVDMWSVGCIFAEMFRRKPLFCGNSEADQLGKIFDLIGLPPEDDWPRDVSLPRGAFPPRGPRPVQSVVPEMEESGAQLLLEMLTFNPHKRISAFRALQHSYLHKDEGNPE
Sequence of CDK4 (P24385 whole entry partner, species assumed): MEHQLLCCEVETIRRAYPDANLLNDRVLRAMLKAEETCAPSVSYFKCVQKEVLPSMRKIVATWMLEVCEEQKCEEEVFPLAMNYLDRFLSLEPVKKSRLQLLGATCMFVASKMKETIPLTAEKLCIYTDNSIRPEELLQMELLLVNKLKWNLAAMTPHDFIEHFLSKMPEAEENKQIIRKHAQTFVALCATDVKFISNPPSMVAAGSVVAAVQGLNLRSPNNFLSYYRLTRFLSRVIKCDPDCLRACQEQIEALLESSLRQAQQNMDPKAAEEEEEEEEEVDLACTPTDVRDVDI
Sequence of CDK5 (Q00535 whole entry, species assumed): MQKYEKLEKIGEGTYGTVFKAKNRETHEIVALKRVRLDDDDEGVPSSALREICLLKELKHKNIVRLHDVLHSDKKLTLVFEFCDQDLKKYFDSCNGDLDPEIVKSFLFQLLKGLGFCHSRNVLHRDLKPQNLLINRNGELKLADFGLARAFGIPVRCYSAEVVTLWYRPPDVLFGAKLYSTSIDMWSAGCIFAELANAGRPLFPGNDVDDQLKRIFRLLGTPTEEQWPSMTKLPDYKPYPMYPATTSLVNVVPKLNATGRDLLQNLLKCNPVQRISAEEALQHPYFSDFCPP
Sequence of CDK5 (Q15078 whole entry partner, species assumed): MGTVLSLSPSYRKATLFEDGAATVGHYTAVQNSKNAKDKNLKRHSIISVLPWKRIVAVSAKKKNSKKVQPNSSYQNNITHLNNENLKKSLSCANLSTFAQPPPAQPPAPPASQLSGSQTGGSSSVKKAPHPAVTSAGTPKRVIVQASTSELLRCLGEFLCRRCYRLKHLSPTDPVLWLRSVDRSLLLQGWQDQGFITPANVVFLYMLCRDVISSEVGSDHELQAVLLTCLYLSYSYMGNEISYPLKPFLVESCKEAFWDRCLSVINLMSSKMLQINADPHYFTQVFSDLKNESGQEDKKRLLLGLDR
T2 sequence (P50750 whole entry): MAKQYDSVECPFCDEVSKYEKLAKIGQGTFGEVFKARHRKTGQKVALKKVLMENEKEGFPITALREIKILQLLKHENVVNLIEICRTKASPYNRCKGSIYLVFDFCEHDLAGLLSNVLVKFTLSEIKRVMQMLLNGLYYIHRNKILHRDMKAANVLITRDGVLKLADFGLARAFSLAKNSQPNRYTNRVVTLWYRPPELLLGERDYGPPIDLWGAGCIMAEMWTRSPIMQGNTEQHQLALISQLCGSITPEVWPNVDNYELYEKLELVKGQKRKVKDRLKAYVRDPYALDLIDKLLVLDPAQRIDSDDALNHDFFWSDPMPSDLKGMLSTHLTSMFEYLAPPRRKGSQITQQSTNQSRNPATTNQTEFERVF
T2 sequence (O60563 whole entry partner): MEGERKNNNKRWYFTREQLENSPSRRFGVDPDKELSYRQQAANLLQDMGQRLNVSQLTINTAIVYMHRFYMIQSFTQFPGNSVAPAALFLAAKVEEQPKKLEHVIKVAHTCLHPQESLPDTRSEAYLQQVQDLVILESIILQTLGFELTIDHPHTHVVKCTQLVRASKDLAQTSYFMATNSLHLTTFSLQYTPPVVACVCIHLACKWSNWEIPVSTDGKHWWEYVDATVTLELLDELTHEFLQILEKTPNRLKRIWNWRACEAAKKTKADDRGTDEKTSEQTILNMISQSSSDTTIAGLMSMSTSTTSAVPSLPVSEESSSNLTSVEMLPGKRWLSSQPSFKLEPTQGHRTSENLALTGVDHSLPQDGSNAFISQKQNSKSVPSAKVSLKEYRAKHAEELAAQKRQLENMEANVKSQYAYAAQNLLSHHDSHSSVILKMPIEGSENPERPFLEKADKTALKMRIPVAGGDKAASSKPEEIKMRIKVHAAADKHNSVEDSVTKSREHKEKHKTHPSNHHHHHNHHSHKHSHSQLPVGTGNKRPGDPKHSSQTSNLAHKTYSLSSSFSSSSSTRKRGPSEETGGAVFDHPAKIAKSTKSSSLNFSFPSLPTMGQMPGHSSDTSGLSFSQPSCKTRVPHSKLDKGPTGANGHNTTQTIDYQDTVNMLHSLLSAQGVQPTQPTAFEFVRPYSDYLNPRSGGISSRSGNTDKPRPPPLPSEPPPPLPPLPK
T4 sequence (P50613 whole entry): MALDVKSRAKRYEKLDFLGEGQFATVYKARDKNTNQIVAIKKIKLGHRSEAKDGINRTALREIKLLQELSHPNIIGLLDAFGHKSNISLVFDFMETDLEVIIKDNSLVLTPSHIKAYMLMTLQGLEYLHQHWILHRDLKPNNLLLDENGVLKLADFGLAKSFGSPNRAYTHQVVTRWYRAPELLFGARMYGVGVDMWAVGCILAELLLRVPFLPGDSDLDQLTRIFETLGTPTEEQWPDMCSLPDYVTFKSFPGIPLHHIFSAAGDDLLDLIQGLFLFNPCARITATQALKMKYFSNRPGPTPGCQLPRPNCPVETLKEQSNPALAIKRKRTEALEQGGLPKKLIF
T4 sequence (P51946 whole entry partner): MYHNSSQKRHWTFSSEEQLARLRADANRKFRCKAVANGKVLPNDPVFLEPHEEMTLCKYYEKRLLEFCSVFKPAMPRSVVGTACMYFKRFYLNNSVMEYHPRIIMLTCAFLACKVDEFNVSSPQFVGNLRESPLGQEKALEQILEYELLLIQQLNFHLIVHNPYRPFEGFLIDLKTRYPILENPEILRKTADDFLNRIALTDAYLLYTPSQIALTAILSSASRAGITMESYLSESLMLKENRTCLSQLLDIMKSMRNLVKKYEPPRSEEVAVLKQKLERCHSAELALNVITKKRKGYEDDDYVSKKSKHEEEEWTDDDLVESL
T4 sequence (P51948 whole entry partner): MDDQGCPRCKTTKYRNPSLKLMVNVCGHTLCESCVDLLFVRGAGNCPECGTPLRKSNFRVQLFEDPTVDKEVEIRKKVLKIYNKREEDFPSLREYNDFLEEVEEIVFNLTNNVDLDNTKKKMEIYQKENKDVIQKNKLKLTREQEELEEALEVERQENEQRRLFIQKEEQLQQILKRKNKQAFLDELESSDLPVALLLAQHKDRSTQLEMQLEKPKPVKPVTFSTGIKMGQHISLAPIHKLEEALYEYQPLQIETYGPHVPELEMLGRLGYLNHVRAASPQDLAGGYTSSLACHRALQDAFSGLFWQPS
T3 sequence (P06493 whole entry): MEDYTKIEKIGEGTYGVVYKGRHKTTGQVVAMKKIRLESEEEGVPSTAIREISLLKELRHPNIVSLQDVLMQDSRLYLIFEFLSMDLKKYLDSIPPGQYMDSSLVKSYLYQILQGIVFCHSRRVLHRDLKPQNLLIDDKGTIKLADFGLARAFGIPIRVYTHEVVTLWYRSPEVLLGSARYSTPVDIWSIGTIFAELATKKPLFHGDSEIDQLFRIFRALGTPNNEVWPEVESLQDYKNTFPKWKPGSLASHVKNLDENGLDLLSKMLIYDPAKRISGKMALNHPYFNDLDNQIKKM
T3 sequence (P14635 whole entry partner): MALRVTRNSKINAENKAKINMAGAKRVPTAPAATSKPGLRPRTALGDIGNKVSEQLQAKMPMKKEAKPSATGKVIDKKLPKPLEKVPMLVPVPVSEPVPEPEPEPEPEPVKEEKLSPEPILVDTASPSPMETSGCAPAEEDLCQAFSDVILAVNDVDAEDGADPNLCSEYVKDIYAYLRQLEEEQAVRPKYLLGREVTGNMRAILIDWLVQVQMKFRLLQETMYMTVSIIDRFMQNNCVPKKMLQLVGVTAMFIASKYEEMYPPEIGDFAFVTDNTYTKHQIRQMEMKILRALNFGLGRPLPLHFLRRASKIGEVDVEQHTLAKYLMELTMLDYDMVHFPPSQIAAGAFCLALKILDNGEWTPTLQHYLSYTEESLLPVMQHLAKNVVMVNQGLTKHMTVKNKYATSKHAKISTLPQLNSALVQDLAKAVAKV

## COc1ccc(CNc2nc(N(CCO)CCO)nc3c2ncn3C(C)C)cc1 [CVT-313]
[1]
  inhibition of neointima formation: greater than 80%

## CC(=O)NCCCNc1nccc(-c2ccnc(Nc3cccc([N+](=O)[O-])c3)n2)c1C [Compound 25, N-(3-{3-Methyl-4-[2-(3-nitro-phenylamino)-pyrimidin-4-yl]-pyridin-2-ylamino}-propyl)-acetamide]
[2]
  pIC50: > 5.30
[3]
  pIC50: > 5.30
[4]
  pIC50: 4.82 to 5.30
[5]
  pIC50: > 5.30
[6]
  pIC50: > 5.30
[7]
  pIC50: > 5.30
[8]
  pIC50: > 5.30

## COc1cnccc1-c1ccnc(Nc2cccc(S(C)(=O)=O)c2)n1 [Compound 46, (3-Methanesulfonyl-phenyl)-[4-(3-methoxy-pyridin-4-yl)-pyrimidin-2-yl]-amine]
[2]
  pIC50: > 5.30
[3]
  pIC50: > 5.30
[4]
  pIC50: 4.82 to 5.30
[5]
  pIC50: > 5.30
[6]
  pIC50: > 5.30
[7]
  pIC50: > 5.30
[8]
  pIC50: > 5.30

## COc1cnccc1-c1ccnc(Nc2cccc(Cl)c2)n1 [Compound 45, (3-Chloro-phenyl)-[4-(3-methoxy-pyridin-4-yl)-pyrimidin-2-yl]-amine]
[2]
  pIC50: > 5.30
[3]
  pIC50: > 5.30
[4]
  pIC50: 4.82 to 5.30
[5]
  pIC50: > 5.30
[6]
  pIC50: > 5.30
[7]
  pIC50: > 5.30
[8]
  pIC50: < 4.30
